Laboratory results taken from paper PMC8907714, “Antimicrobial property of Pichia pastoris‐derived natto peptide against foodborne bacteria and its preservative potential to maintain pork quality during refrigerated storage” (Food Science & Nutrition, 2022).

How the values were obtained:
E. coli O157 = assay: Time‐killing curve; assay type: cell-based, Escherichia coli; conditions: gentamicin positive control, concentration not given
Method: Time‐killing curves were obtained as described previously to evaluate the bactericidal rates of natto peptide (Dong & Sun, [2021]). Concisely, the natto peptide at final concentrations of 1×, 2×, and 4× MICs was incubated with E. coli O157, which was cultured to midlog phase. Then, the culture samples were harvested at different time intervals for colony counting. PBS buffer and gentamicin were used as negative and positive controls. All the experiments were performed in triplicate.

[1] = tested on: total bacteria, Staphylococcus spp., Escherichia spp., and Pseudomonas spp.; assay: Microbial growth in pork during refrigerated storage, colony count; conditions: pork soaked 20 min, natto peptide 30, 60, 90 μg/ml, nisin 50 μg/ml, butyl paraben 100 μg/ml, 4°C, 8‐day storage
Method: Fresh‐pork legs were bought from a local butcher (Binzhou, China) 24 h postmortem. The connective tissue and fat of the pork were removed before cutting into even slices (5 ± 0.1 g). Afterwards, the slices were soaked in 0, 30, 60, and 90 μg/ml of natto peptide for 20 min. Then, the slices were drained and placed in sterilized polyvinyl chloride trays, sealed using a polyethylene film, and stored at 4°C in a refrigerator for 8 days. Meanwhile, 50 μg/ml of nisin and 100 μg/ml of butyl paraben were used as positive controls to analyze the aseptic effects of natto peptide, including microbial growth, TVB‐N, lipid oxidation, pH, drip loss, and sensory quality during storage.
The microbial growth of pork was determined by colony count, as described previously (Meng et al., [2021]). In brief, after the pork sample (5 g) was homogenized with 0.9% sterilized saline buffer (25 ml), 100 μl of the 10× diluent was spread on plate‐count agar, mannitol‐salt agar, violet red bile agar, and centrimide (CN) agar, and incubated at a suitable temperature for 48 h. All experiments were performed three times.

Molecule | time until bacteria were completely killed (E. coli O157) [h] | bacterial growth in pork compared with control [1]
CNC(C)C1CCC(N)C(OC2C(N)CC(N)C(OC3OCC(C)(O)C(NC)C3O)C2O)O1 (stereo not drawn) [gentamicin] | 1.5 | 
Nisin |  | moderate inhibitory effect
CCCCOC(=O)c1ccc(O)cc1 [Butyl paraben] |  | effective inhibition function
